Laboratory results: patent US6525017B1, “Using glutathiane to protect neurons from injury” (The Children's Medical Center Corporation, priority 1989, dated 2003)

How the values were obtained:
[1] = system: NMDA receptor; experiment: NMDA-induced responses recorded in intact chick retina (eyecup, optic nerve DC potential); type: cell-based
Protocol: Eyecups were obtained from 2-to 5-day-old chicks and continuously superfused at 20-25° C. at a rate of 8 ml/min with Tyrodes solution (130 mM NaCl, 3 mM KCl, 17 mM dextrose, 20 mM NaHCO3, 0.01% w/v phenol red; bubbled with a gas mixture of 95% O2 and 5% CO2) containing 5 mM MgCl2 to reduce synaptic activity. […] Traces were triggered by the opening of two solenoid valves that shunted approximately 200 μl of agonist (1, 1-dimethyl-4-phenyl-piperazinium iodide, DMPP or NMDA) into the perfusion line, Agonists reached the preparation approximately 7s later. […] Some experiments were performed in the presence of 10 μg/ml catalase and 1 μg/ml superoxide dismutase. Antagonists, reducing agents, or oxidizing agents were introduced directly via the perfusate.

[2] = system: non-NMDA receptors; experiment: Whole-cell currents elicited by non-NMDA agonists in rat retinal ganglion cells; type: cell-based; conditions: 125 μM kainate, 60 μM AMPA, 30 μM quisqualate
Protocol: The third central neuronal preparation in which the effects of oxidation and reduction on NMDA responses were tested was the isolated rat retinal ganglion cell. Postnatal retinal ganglion cells were identified and cultured as described in Lipton et al., supra. Physiological solutions and experimental protocol were the same as described for cortical neurons (Example 2), except that TTX was excluded from the extracellular fluid, since whole-cell recordings were performed on neurons that were solitary and had no apparent connections to other cells and no spontaneous action potentials.
In the retinal ganglion cells, we further tested the effects of DTT and DTNB on responses elicited by glutamate analogs acting at non-NMDA receptors to confirm our previous observations in the chick retina, i.e., a lack of effect of reduction and oxidation on responses induced by agonists acting at non-NMDA receptors.

[3] = system: retinal ganglion cells; experiment: Survival of retinal ganglion cells exposed to glutamate (NMDA neurotoxicity); type: cell-based, rat
Protocol: To investigate the influence of redox modulation on NMDA neurotoxicity, survival of an identified central neuron, the retinal ganglion cell, was monitored for 12-24 hr after a brief (5-10 min.) exposure to DTT. To determine the degree of killing specifically related to activation of the NMDA receptor, APV at 200 μM was added to sibling cultures. APV-preventable, glutamate-induced death was increased 70±9% with DTT treatment.
Retinal ganglion cell neurons were labeled in situ, dissociated from the retina, and cultured as follows. Retinal ganglion cells from 7- to 12-day-old Long-Evans rats were labeled and enzymatically dissociated as described by Leifer et al., Science 224: 303, 1984. Following rinse of the dissociated retinal cells with a physiological saline based on Hanks' salts (composition in mM: NaCl, 137; NaHCO3, 1; Na2HPO4, 0.34; KCl, 5,36; KH2PO4, 0.44; CaCl2, 1.25, MgSO4, 0.5; MgCl2, 0.5; N-2-hydroxyethyl-piperazine-N′-2-ethanesulfonic acid (HEPES), 5; dextrose, 22.2; Phenol Red, 0.001% v/v; adjusted to pH 7.2 with 0.3 M NaOH), the cells were mechanically dispersed and aliquoted to treatment vials. These vials contained control saline solution, or saline solution with either 0.5-2 mM DTT, or 0.5 mM DTT in the presence of 1 mM DTNB. Treatment groups with DTNB were readjusted to pH 7.2 with 0.3 M NaOH. Cells were agitated gently over a 5-10 min period. After treatment, 100 μl volumes of the cell suspension were plated onto glass coverslips coated with poly-L-lysine in 35×10 mm tissue-culture dishes containing 2 ml of culture medium. The cell culture medium was based on Eagle's minimum essential medium (MEM), modified so that it was nominally free of magnesium and contained 10 mM CaCl2 to enhance NMDA receptor-mediated neuro-toxicity. The medium was also supplemented with methylcellulose 0.7% w/v, gentamicin 1 μg/ml, dextrose 16 mM, and rat serum 5% v/v. Glutamate levels in the culture medium were monitored by HPLC analysis. Concentrations of glutamate added to the medium of each experiment to induce cell killing averaged 10 μM (day to day variability in neuronal cell death was most probably due to slight variations in the amount of endogenous glutamate or a glutamate-like substance in these cultures). The 100 μl aliquots of cell suspension diluted into the 2 ml of MEM produced a final concentration of 50 μM Mg^2+, as well as levels of DTT and DTNB at 5% of their initial treatment concentrations. The cell cultures were incubated for 12-24 hours at 37° C. in an atmosphere of 5% CO2/95% humidified air. Neuronal survival was then scored by counting retinal ganglion cells displaying uptake and cleavage of fluorescein diacetate to fluorescein, as described by Hahn et al. Proc. Nat. Acad. Sci. USA 85:6556, 1988.
Experiments were conducted in triplicate and repeated on eleven separate days. In order to compare results obtained on different days, data were normalized such that the total number of surviving neurons in a given experiment divided by the number of treatment categories (i.e., 4) equalled 100.
Retinal cells were cultured as described in Example 1. In these experiments transient exposure to the reduced form of DTT (500 μM) occurred in the presence of DTNB (1 mM).

Row | SMILES | response to NMDA, % of control (potentiation) ([1]; 100 μM NMDA, DTT 1-2 mM applied for 10-25 min, mean ± spread) | response to NMDA, % of control, range ([1]; 100 μM NMDA, DTT 1-2 mM applied for 10-25 min, range) | currents elicited by kainate, AMPA or quisqualate after reduction ([2]; 1 mM DTT) | death of retinal ganglion cells exposed to glutamate in the culture medium ([3]; APV 200 μM, DTT transient exposure, 12-24 hr) | increase of APV-preventable, glutamate-induced death ([3]; brief (5-10 min) exposure to DTT, survival monitored 12-24 hr) | decrease of NMDA response following oxidation ([1]; 0.1-1.0 mM DTNB applied for 5 min, compared with controls, mean ± spread) | decrease of NMDA response following oxidation, range ([1]; 0.1-1.0 mM DTNB applied for 5 min, range) | responses elicited by kainate, AMPA or quisqualate after oxidation ([2]; 200 μM DTNB) | DTT-enhanced glutamate-induced death with concomitant DTNB ([3]; 0.5 mM DTT in the presence of 1 mM DTNB)
1 | O[C@@H](CS)[C@@H](O)CS [DTT, dithothreitol] | 530%±280% | 200%-860% | no substantial effect | substantially increased death | 70±9% |  |  |  | 
2 | O=C(O)c1cc(SSc2ccc([N+](=O)[O-])c(C(=O)O)c2)ccc1[N+](=O)[O-] [DTNB, 5′-5′-dithiobis-2-nitrobenzoic acid] |  |  |  |  |  | 81.6%±24.1% | 43%-100% | did not affect | totally blocked
